The values that follow come from patent publication US8802700B2 (Vertex Pharmaceuticals Incorporated, priority 2010, dated 2014).

T1 sequence (P13569 with tags, fused parts or gaps DEL508-508): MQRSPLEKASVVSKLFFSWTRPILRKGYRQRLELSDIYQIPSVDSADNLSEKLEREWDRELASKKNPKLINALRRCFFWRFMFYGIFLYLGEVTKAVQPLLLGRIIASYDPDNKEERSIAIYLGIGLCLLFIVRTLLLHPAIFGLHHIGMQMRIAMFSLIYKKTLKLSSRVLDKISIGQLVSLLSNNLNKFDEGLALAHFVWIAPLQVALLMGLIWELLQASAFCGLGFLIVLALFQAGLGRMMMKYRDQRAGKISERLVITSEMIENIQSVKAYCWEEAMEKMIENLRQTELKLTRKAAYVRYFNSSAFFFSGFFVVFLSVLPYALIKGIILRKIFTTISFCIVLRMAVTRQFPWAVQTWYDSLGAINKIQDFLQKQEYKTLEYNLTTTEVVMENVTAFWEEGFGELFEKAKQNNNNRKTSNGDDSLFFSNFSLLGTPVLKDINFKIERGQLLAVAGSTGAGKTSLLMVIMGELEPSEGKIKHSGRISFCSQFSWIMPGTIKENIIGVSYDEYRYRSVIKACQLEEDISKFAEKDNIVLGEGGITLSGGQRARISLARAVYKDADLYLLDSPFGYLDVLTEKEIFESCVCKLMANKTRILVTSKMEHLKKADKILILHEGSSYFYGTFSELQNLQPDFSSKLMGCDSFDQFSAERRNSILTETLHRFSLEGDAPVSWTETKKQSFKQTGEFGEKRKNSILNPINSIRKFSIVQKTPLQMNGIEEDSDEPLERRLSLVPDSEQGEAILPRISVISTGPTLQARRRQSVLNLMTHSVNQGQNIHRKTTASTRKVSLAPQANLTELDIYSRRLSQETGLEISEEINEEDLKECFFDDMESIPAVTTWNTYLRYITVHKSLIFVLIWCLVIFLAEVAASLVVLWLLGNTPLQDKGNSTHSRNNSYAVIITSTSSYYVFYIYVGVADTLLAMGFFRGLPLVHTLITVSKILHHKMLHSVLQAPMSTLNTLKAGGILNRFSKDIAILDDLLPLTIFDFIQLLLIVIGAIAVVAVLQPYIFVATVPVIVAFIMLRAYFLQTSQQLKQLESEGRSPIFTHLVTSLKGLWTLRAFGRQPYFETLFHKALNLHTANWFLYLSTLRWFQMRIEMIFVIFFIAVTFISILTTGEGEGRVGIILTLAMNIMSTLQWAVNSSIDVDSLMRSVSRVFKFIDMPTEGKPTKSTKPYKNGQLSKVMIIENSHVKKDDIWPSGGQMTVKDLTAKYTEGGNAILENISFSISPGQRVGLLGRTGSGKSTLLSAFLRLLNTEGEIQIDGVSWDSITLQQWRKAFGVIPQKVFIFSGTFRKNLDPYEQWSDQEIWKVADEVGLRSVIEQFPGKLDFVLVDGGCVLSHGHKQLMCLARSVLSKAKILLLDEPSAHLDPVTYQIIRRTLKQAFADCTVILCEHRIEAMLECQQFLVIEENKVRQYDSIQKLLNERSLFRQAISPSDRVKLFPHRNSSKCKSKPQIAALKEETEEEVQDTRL

The first assay concerns the target T1, ΔF508-CFTR (Homo sapiens, UniProt P13569, DEL508-508).
T1 construct: expressed in transfected cells
Put plainly: Membrane potential optical assay (FRET voltage-sensor dyes, VIPR), identification of potentiator compounds. The class given is cell-based. To be noted: Table 3; assay not given. The method, boiled down: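 NIH3T3 mouse fibroblasts stably expressing ΔF508-CFTR, cultured 24 h at 27 °C, were loaded with FRET voltage dyes CC2-DMPE and DiSBAC2(3). Double-addition format: first addition of Cl⁻-free (gluconate) medium with or without compound; membrane-potential change read as fluorescence on VIPR II.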
`COC(=O)c1cccc(-c2ccccc2NC(=O)c2c[nH]c3ccccc3c2=O)c1` [Compound 68, 3-[2-[(4-oxo-1H-quinolin-3-yl)carbonylamino]phenyl]benzoic acid methyl ester]: the half-maximal effective concentration (EC50) (in general, the concentration that produces a half-maximal response) is under 10 µM.

With `CC(C)c1ccc(NC(=O)c2c[nH]c3ccc(F)cc3c2=O)cc1O` [Compound 597, 6-fluoro-N-(3-hydroxy-4-isopropyl-phenyl)-4-oxo-1H-quinoline-3-carboxamide], the concentration for a half-maximal effect (EC50) is under 10 µM.

The same assay, now with this note: Table 3; assay not given; read-out: % Activity (% Efficacy, relative efficacy).
On to `O=C(Nc1ccc(C(F)(F)F)nc1)c1c[nH]c2ccccc2c1=O` [Compound 197, 4-oxo-N-[6-(trifluoromethyl)-3-pyridyl]-1H-quinoline-3-carboxamide], for which the Emax was under 25%. In the case of `COc1nc(NC(=O)c2c[nH]c3ccccc3c2=O)ccc1C(F)(F)F` [Compound 571, N-[6-methoxy-5-(trifluoromethyl)-2-pyridyl]-4-oxo-1H-quinoline-3-carboxamide], the Emax was under 25%. Same read-out and setting: with `CC(C)(C)c1ccc(NC(=O)c2cnc3ccccc3c2OCc2ccccc2)cc1O` [Compound 275, 4-Benzyloxy-N-(3-hydroxy-4-tert-butyl-phenyl)-quinoline-3-carboxamide] the figure was 25 to 100%.

As to `CC1CCN(S(=O)(=O)c2ccc3[nH]cc(C(=O)Nc4cc5[nH]ccc5cc4C(C)(C)C)c(=O)c3c2)CC1` [Compound 51, 6-[(4-methyl-1-piperidyl)sulfonyl]-4-oxo-N-(5-tert-butyl-1H-indol-6-yl)-1H-quinoline-3-carboxamide], the Emax was in the range of 25 to 100%. Take `CC(C)(C)c1cc2cc[nH]c2cc1NC(=O)c1c[nH]c2cc(F)c(F)cc2c1=O` [Compound 646, 6,7-difluoro-4-oxo-N-(5-tert-butyl-1H-indol-6-yl)-1H-quinoline-3-carboxamide]: the Emax was 25 to 100%. Same read-out and setting: with `Cc1cccc2[nH]cc(C(=O)Nc3ccc(N4CCC[C@@H]4C)nc3C(F)(F)F)c(=O)c12` [Compound 581, (S)-5-methyl-N-(6-(2-methylpyrrolidin-1-yl)-2-(trifluoromethyl)pyridin-3-yl)-4-oxo-1,4-dihydroquinoline-3-carboxamide] the figure was 25 to 100%; with `O=C(Nc1ccc2ncccc2c1)c1c[nH]c2ccccc2c1=O` [Compound 280, 4-oxo-N-(6-quinolyl)-1H-quinoline-3-carboxamide], under 25%.

Consider `Cc1cccc2[nH]cc(C(=O)Nc3ccc(N4CCCC(C)C4)cc3C(F)(F)F)c(=O)c12` (centres unmarked) [Compound 643, 5-methyl-N-[4-(3-methyl-1-piperidyl)-2-(trifluoromethyl)phenyl]-4-oxo-1H-quinoline-3-carboxamide], for which the Emax was 25 to 100%. For `O=C(Nc1cc2[nH]ccc2cc1F)c1c[nH]c2ccccc2c1=O` [Compound 77, N-(5-fluoro-1H-indol-6-yl)-4-oxo-1H-quinoline-3-carboxamide], the Emax is 25 to 100%. The same measure, in the same setting: with `CCCCOc1ccccc1NC(=O)c1c[nH]c2ccccc2c1=O` [Compound 177, N-(2-butoxyphenyl)-4-oxo-1H-quinoline-3-carboxamide] the figure was over 100%; with `O=C(Nc1cc(NS(=O)(=O)CCN2CCCCC2)cc(C(F)(F)F)c1)c1c[nH]c2ccccc2c1=O` [Compound 318, 4-Oxo-N-[3-[2-(1-piperidyl)ethylsulfonylamino]-5-(trifluoromethyl)phenyl]-1H-quinoline-3-carboxamide], 25 to 100%. The same measure, in the same setting: with `O=C(Nc1ccc2c(c1)C(O)CCC2)c1c[nH]c2ccccc2c1=O` (centres unmarked) [Compound 200, 1,4-dihydro-N-(1,2,3,4-tetrahydro-1-hydroxynaphthalen-7-yl)-4-oxoquinoline-3-carboxamide] the figure was 25 to 100%; with `CCCCCc1ccc(NC(=O)c2c[nH]c3ccccc3c2=O)cc1` [Compound 99, 4-oxo-N-(4-pentylphenyl)-1H-quinoline-3-carboxamide], 25 to 100%. As for `Cc1ccc(NC(=O)c2c[nH]c3ccccc3c2=O)c(F)c1` [Compound 289, N-(2-fluoro-4-methyl-phenyl)-4-oxo-1H-quinoline-3-carboxamide], the Emax fell in the range of 25 to 100%. As for `CCc1c[nH]c2cc(NC(=O)c3c[nH]c4ccccc4c3=O)ccc12` [Compound 383, N-(3-ethyl-1H-indol-6-yl)-4-oxo-1H-quinoline-3-carboxamide], the Emax fell in the range of 25 to 100%. With `O=C(Nc1ccccc1Oc1ccc(Cl)cc1Cl)c1c[nH]c2ccccc2c1=O` [Compound 245, N-[2-(2,4-dichlorophenoxy)phenyl]-4-oxo-1H-quinoline-3-carboxamide], the Emax is 25 to 100%. Still for that read-out and setting: with `Cc1ccccc1-c1nc2cc(NC(=O)c3c[nH]c4ccccc4c3=O)ccc2o1` [Compound 329, N-[2-(o-tolyl)benzooxazol-5-yl]-4-oxo-1H-quinoline-3-carboxamide] the figure was 25 to 100%.

Consider `CC(C)(C)c1cccc(NC(=O)c2c[nH]c3ccc(F)cc3c2=O)c1` [Compound 664, 6-fluoro-4-oxo-N-(3-tert-butylphenyl)-1H-quinoline-3-carboxamide], for which the Emax lay in the range of 25 to 100%. Still for that read-out and setting: with `CC(C)(C)OC(=O)[C@@H]1CCCN1c1ccc(NC(=O)c2c[nH]c3ccccc3c2=O)c(C(F)(F)F)c1` [Compound 629, (S)-tert-butyl 1-(4-(4-oxo-1,4-dihydroquinoline-3-carboxamido)-3-(trifluoromethyl)phenyl)pyrrolidine-2-carboxylate] the figure was 25 to 100%.

In the case of `O=C(Nc1cccnc1Oc1ccc(F)cc1)c1c[nH]c2ccccc2c1=O` [Compound 147, N-[2-(4-fluorophenoxy)-3-pyridyl]-4-oxo-1H-quinoline-3-carboxamide], the Emax was in the range of 25 to 100%. On the same count and under the same terms, with `COc1ccc(-c2ccccc2NC(=O)c2c[nH]c3ccccc3c2=O)c(OC)c1` [Compound 312, N-[2-(2,4-dimethoxyphenyl)phenyl]-4-oxo-1H-quinoline-3-carboxamide] the figure was 25 to 100%; with `CCC(CC)(CC)c1cc(F)c(NC(=O)c2cnc3ccccc3c2O)cc1O` [Compound 34, N-[4-(1,1-diethylpropyl)-2-fluoro-5-hydroxy-phenyl]-4-hydroxy-quinoline-3-carboxamide], 25 to 100%; with `CC1(C)CCN(c2ccc(NC(=O)c3c[nH]c4ccccc4c3=O)c(C(F)(F)F)c2)C1` [Compound 536, N-[4-(3,3-dimethylpyrrolidin-1-yl)-2-(trifluoromethyl)phenyl]-4-oxo-1H-quinoline-3-carboxamide], 25 to 100%. Consider `CC(C)(C)OC(=O)NC1CCCc2ccc(NC(=O)c3c[nH]c4ccccc4c3=O)cc21` (centres unmarked) [Compound 273, [7-[(4-oxo-1H-quinolin-3-yl)carbonylamino]tetralin-1-yl]aminoformic acid tert-butyl ester], for which the Emax was over 100%. On to `C[C@H]1CCCN1c1ccc(NC(=O)c2c[nH]c3ccc(F)cc3c2=O)c(C(F)(F)F)c1` [Compound 714, (S)-6-fluoro-N-(4-(2-methylpyrrolidin-1-yl)-2-(trifluoromethyl)phenyl)-4-oxo-1,4-dihydroquinoline-3-carboxamide], for which the Emax lay within 25 to 100%. Same read-out and setting: with `CCC(C)c1ccc(NC(=O)c2c[nH]c3ccccc3c2=O)cc1` (centres unmarked) [Compound 310, 4-oxo-N-(4-sec-butylphenyl)-1H-quinoline-3-carboxamide] the figure was 25 to 100%; with `COC(=O)c1cccc(-c2ccccc2NC(=O)c2c[nH]c3ccccc3c2=O)c1` [Compound 68, 3-[2-[(4-oxo-1H-quinolin-3-yl)carbonylamino]phenyl]benzoic acid methyl ester], 25 to 100%. The same measure, in the same setting: with `O=C(Nc1ccc(N2CCC2)cc1C(F)(F)F)c1c[nH]c2ccccc2c1=O` [Compound 689, N-[4-azetidin-1-yl-2-(trifluoromethyl)phenyl]-4-oxo-1H-quinoline-3-carboxamide] the figure was 25 to 100%; with `COc1cc2c(=O)c(C(=O)Nc3cc4[nH]ccc4cc3C(C)(C)C)c[nH]c2cc1F` [Compound 611, 7-fluoro-6-methoxy-4-oxo-N-(5-tert-butyl-1H-indol-6-yl)-1H-quinoline-3-carboxamide], over 100%; with `Cc1cccc2[nH]cc(C(=O)Nc3cc4[nH]ccc4cc3C(F)(F)F)c(=O)c12` [Compound 661, 5-methyl-4-oxo-N-[5-(trifluoromethyl)-1H-indol-6-yl]-1H-quinoline-3-carboxamide], 25 to 100%. Still for that read-out and setting: with `CN(C)c1ccc(-c2ccccc2NC(=O)c2c[nH]c3ccccc3c2=O)cc1` [Compound 12, N-[2-(4-dimethylaminophenyl)phenyl]-4-oxo-1H-quinoline-3-carboxamide] the figure was 25 to 100%; with `NC(=O)c1cccc(NC(=O)c2c[nH]c3ccccc3c2=O)c1` [Compound 179, N-(3-carbamoylphenyl)-4-oxo-1H-quinoline-3-carboxamide], under 25%. For `CC(C)(C)c1cc2cc[nH]c2cc1NC(=O)c1c[nH]c2cc(OC(F)(F)F)ccc2c1=O` [Compound 632, 4-oxo-N-(5-tert-butyl-1H-indol-6-yl)-7-(trifluoromethoxy)-1H-quinoline-3-carboxamide], the Emax lay in the range of 25 to 100%. On the same count and under the same terms, with `O=C(Nc1ccc2cc(C(F)(F)F)[nH]c2c1)c1c[nH]c2ccc(F)cc2c1=O` [Compound 495, 6-fluoro-4-oxo-N-[2-(trifluoromethyl)-1H-indol-6-yl]-1H-quinoline-3-carboxamide] the figure was 25 to 100%; with `CC(C)c1ccc(NC(=O)c2c[nH]c3ccc(F)cc3c2=O)cc1O` [Compound 597, 6-fluoro-N-(3-hydroxy-4-isopropyl-phenyl)-4-oxo-1H-quinoline-3-carboxamide], 25 to 100%.

As to `COCCOCC(C)(C)c1ccc(NC(=O)c2c[nH]c3ccccc3c2=O)cc1O` [Compound 126, N-[3-hydroxy-4-[2-(2-methoxyethoxy)-1,1-dimethyl-ethyl]-phenyl]-4-oxo-1H-quinoline-3-carboxamide], the Emax was 25 to 100%.

On to `O=C(Nc1ccccc1N1CCN(C(=O)c2ccccc2)CC1)c1c[nH]c2ccccc2c1=O` [Compound 321, N-[2-(4-benzoylpiperazin-1-yl)phenyl]-4-oxo-1H-quinoline-3-carboxamide], for which the Emax was 25 to 100%. Same read-out and setting: with `O=C(Nc1cccc(O)c1)c1c[nH]c2ccccc2c1=O` [Compound 144, N-(3-hydroxyphenyl)-4-oxo-1H-quinoline-3-carboxamide] the figure was 25 to 100%.

On to `Cc1cccc(C)c1NC(=O)c1c[nH]c2ccccc2c1=O` [Compound 315, N-(2,6-dimethylphenyl)-4-oxo-1H-quinoline-3-carboxamide], for which the Emax was in the range of 25 to 100%.
